We go through six compounds from US11382908B2, “Compositions and methods for treating inflammatory bowel disease” (The Broad Institute, Inc., priority 2017, dated 2022).

Test [1] addresses T1, CARD9-TRIM62 protein-protein interaction (Homo sapiens, UniProt Q9H257).
T1 construct: expressed in transfected cells; host or cells: HEK293F (Life Technologies, R790-07), separate transient transfections, cleared lysates
T1 sequence (Q9H257 1-536): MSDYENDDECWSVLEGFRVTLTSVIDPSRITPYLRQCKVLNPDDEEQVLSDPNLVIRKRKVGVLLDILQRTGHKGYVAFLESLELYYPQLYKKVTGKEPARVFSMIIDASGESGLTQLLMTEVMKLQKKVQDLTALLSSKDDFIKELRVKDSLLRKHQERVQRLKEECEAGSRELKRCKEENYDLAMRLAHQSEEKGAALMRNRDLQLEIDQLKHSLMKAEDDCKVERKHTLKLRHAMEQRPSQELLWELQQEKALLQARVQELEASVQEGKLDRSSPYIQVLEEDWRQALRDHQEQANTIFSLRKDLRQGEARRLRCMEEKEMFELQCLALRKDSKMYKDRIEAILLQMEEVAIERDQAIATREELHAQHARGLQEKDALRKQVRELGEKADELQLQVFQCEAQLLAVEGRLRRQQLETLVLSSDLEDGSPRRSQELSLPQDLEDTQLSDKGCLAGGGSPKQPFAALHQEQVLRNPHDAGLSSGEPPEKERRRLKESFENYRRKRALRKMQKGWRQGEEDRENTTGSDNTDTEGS
The test is described as follows: Luminex bead-based ELISA CARD9-TRIM62 protein-protein interaction assay. In kind it is binding. How it is done:
Flag-StrepII-CARD9 and TRIM62 were purified as described (Cao et al). TRIM62ΔRING and B30.2/SPRY were expressed in Sf9 cells in pFastBac as His8 fusion. For Luminex assay, HEK293F cells were transfected with 3XMyc-TRIM62 in pCMV and separately with Flag-CARD9 in pcDNA4/TO. Anti-Myc tag antibody (9E10) was conjugated to the beads and used for TRIM62 affinity capture from cleared lysates. Following the incubation with compounds, Flag-CARD9 lysate was added; after a series of washes and secondary PE-conjugated antibody incubation, readout was performed on MagPlex instruments.
HEK293F (Life Technologies, R790-07) cells were grown in Freestyle media (Cat. #12338) according to manufacturer's instructions. Cells were transiently transfected with 3XMyc-TRIM62 in pCMV and separately with Flag-CARD9 in pcDNA4/TO. Anti-Myc tag antibody (9E10, Sigma) was conjugated to the Luminex beads (10 spectral range beads in 10 separate reactions) using Pierce reagents/Luminex coupling kit. Flag-CARD9 and Myc-TRIM62 transfected cells were separately lysed in the lysis buffer (50 mM Tris pH 7.4, 150 mM NaCl, 0.5% NP40, protease inhibitors (Complete, Roche, 11873580001), phosphatase inhibitors (PhosStop, Roche, 4906845001)) and cleared by centrifugation at 10,000 g. Cleared TRIM62 lysates were added to the beads for Myc-mediated capture, incubated at room temperature for 1 hr, then washed lx and reconstituted in 1% BSA in PBS.
Screening compounds were pre-dispensed into assay-ready plates (twintecc, Eppendorf; 50 nl of 10 mM compound stock in DMSO per well). Cleared CARD9 lysate (20 μl per well) was added to the assay-ready plate and pre-incubated with the screening compounds for 30 min before addition of TRIM62-bound beads (300 beads per well, in 5 μl of 1% BSA in PBS). Plates were mixed on Bioshake IQ at 2400 rpm for 2 min and incubated for 40 min at room temperature. Plates were then washed on Biomek NX^P instrument with magnetic plate holders 1× with 1% BSA in PBS. Each 10 plates with non-identical spectral regions of beads were combined into one deep-well plate, and incubated with Flag-PE antibody conjugate (Abcam, ab72469) at the final dilution 1:400 for 1 hr. After 1× wash with 1% BSA in PBS, the readout was performed on Luminex MagPlex instruments with standard operating protocol. Bead quantity per well was employed as quality control measure, wells with bead count less than 20 were rejected from the analysis.
A general note: In an ELISA, binding on a coated surface is turned into a signal by an enzyme label.

Test [2] concerns the target T2, ubiquitinylation of CARD9 by TRIM62 (Homo sapiens, UniProt Q9H257).
T2 construct: Full-length Flag-StrepII-CARD9 for AlphaLISA, DSF and NMR assays was expressed as previously described; StrepII (N); made in house; UBE1 and UBE2D2 purchased from LifeSensors, no catalogue numbers
T2 sequence (Q9H257 1-536): T1 sequence (Q9H257 1-536)
Kind of test: AlphaLISA ubiquitinylation assay. The class given is biochemical. The settings on record: reconstituted E1-E2-E3 TRIM62 complex. How it is done:
FlagStrep-CARD9 and TRIM62 were expressed and purified as previously described (Cao et al.). Assay-ready plates containing 80 nl of 10 mM compound in DMSO were used. Ubiquitinylation reactions contained 12.5 nM Flag-Strep-CARD9, 1.25 nM TRIM62, 500 nM ubiquitin, 10 nM UBE1 (LifeSensors), 200 nM UBE2D2 (LifeSensors), 50 mM Tris pH=7.5, 5 mM MgCl2, 2.5 mM ATP, 1 mM DTT, 0.005% Tween-20 in a final volume of 10 μl. To assemble reactions, all reaction components except ubiquitin and Trim62 were combined and dispensed at a 2× concentration in a volume of 5 μl using a Multi-Drop Combi Reagent Dispenser. Reactions were initiated by added ubiquitin and TRIM62 at a 2× concentration in a volume of 5 μL in the same manner. The reactions were incubated at ambient temperature for 90 min then stopped by the addition of 10 μl of 2× quench/detect solution using a 16-ViaFlow dispenser. The 2× quench/detect solution contained 100 mM HEPES pH=7.5, 300 mM NaCl, 0.01% Tween 20, 30 mM ETDA, 40 μg/ml Streptavidin-Donor beads, 10 μg/ml α-Flag-Acceptor beads (both from PerkinElmer) and 100 nM biotin-TUBE1 (LifeSensors). Plates were incubated at RT for an additional 1 h then read on a PerkinElmer Envision.

Test [3] in a line: Truhit alphaLISA assay for non-specific alphaLISA inhibitors. The settings on record: percent AlphaLISA signal, 100% = DMSO control. The source says: Data are expressed as mean of percent AlphaLISA signal (100%=mean AlphaLISA signal with DMSO control)+/−s.d. […] The alphaLISA findings were further corroborated by TRIM62-mediated ubiquitinylation assay coupled with Western blot detection (FIG. 2E).
In general terms: Bead proximity is the source of the signal in Alpha formats.

Test [4] addresses T2, ubiquitinylation of CARD9 by TRIM62. Kind of test: TRIM62-mediated ubiquitinylation assay with Western blot detection. The class given is biochemical. On the procedure: For western blot detection, ubiquitinylation reactions contained 250 nM Flag-Strep-CARD9, 5 nM TRIM62, 5 μM of HA-tagged ubiquitin (Boston Biochem), 25 nM UBE1 (LifeSensors), 300 nM UBE2D2 (LifeSensors), 50 mM Tris pH=7.5, 5 mM MgCl2, 2.5 mM ATP, 1 mM DTT in a final volume of 20 μl. Reactions were quenched by the addition of the LDS sample buffer with 50 mM DTT. HA antibody F-7 (Santa Cruz) was used for the detection of polyubiquitin chains, and Flag M2 antibody from Sigma was used to detect Flag-StrepII-CARD9 as a loading control.
Background: In western blotting, separated proteins are transferred to a membrane and probed.

Test [5] concerns NF-κB activation in THP-1 cells. The test is described as follows: NF-κB luciferase reporter assay in THP-1 cells reconstituted with Dectin-1. The settings on record: for WGP Dectin-1-mediated signaling to NF-κB, luciferase activity: WGP 50 μg/mL, 200 μM compound, 4-h time point. The class given is cell-based. How it is done:
(§1) THP-1 and HEK293T cells were from ATCC and cultured according to ATCC instructions. Cell cultures were regularly checked for mycoplasma contamination using a mycoplasma PCR test. BMDCs were isolated from femur and tibia of C57B/6 mice by harvesting bone marrows followed by hypotonic red blood cell lysis. Obtained bone marrow cells were cultured in DMEM (10% FBS, 1% penicillin/streptomycin, 1% glutamin) with 25 ng/ml GM-CSF.
CARD9 KO THP-1 cells were generated by a CRIPSR-based approach as previously described (Cao et al.). For the NF-κB luciferase assay, CARD9 KO or WT THP-1 cells lines were transduced with Dectin-1 (NM 022570) and a lentivirus-based NF-κB luciferase reporter, containing NF-κB responsive element upstream of minimal promoter and Luc2P54. CARD9 KO cells overexpressing Dectin-1 and the NF-κB luciferase reporter were rescued with indicated CARD9 constructs. For compound treatment, Compound 9 was pre-incubated with Dectin-1, NF-κB reporter expressing THP-1 cells for 2 hours, followed by stimulation with scleroglucan (50 μg/ml), whole glucan particles (WGP dispersible, Invivogen, 50 μg/ml), or LPS (100 ng/ml). Reporter luciferase activity was measured using Steadylite Plus reagent (PerkinElmer).

Test [6] relates to phosphorylation of IKK in primary bone marrow-derived dendritic cells. The test is described as follows: Phospho-IKK FACS in bone marrow-derived dendritic cells. The class given is cell-based, C57B/6 mice. The settings on record: 200 μM compound; stimuli scleroglucan (Dectin-1) or LPS (TLR4 control). On the procedure:
as §1
For phospho-IKK FACS analysis, the BMDCs were plated on day 7 in U bottom 96-well plates at 150,000 cells/well in DMEM, 10% FBS, 1% penicillin/streptomycin, glutamine and GM-CSF the day before the assay. Growth media was replaced with reduced serum media (2% FBS), at this time compound 9 was added to the appropriate wells (at 200 μM) and cells were incubated for 2 hours. Cells were stimulated with 50 μg/ml scleroglucan (Invivogen) or 100 ng/ml LPS (Sigma) for the indicated times at 37° C. At the end of the incubation, media was aspirated and cells were fixed in 4% PFA for 10 min at 37° C.; then resuspended in blocking buffer (3% BSA in permeabilization buffer, eBioscience). […] FACS analysis was run on Cytoflex instrument (Beckman Coulter) and analyzed using FlowJo software by sequentially gating on live/single cells/MHCII high cell population.

Take `NC(=O)C1(N2CCCCC2)CCN(c2ncc(NC(=O)c3ccccc3)cc2C(=O)O)CC1` [compound 6]: the “inhibition of CARD9-TRIM62 protein-protein interaction (Luminex)” value (“inhibition … (Luminex)” below) in test [1] is “dose-dependent inhibitors”. In addition, in test [2], the “inhibition of polyubiquitinylation of CARD9 by TRIM62 (AlphaLISA)” value (“inhibition … (AlphaLISA)” below) is recorded as “inhibit the functional ubiquitinylation of CARD9 by TRIM62”. Moreover, in test [3], the “non-specific alphaLISA inhibition (Truhit)” value was “Nonspecific inhibition was not observed”. Moreover, in test [4], the “inhibition of in vitro CARD9 ubiquitinylation (Western blot)” value (from here on “inhibition … (Western blot)”) is “inhibition of in vitro CARD9 ubiquitinylation reaction”. Moreover, in test [5], the “WGP Dectin-1-mediated signaling to NF-κB, luciferase activity” value is reported as “inhibited”.

As for `NC(=O)C1(N2CCCCC2)CCN(c2ncc(NC(=O)c3cccc(Cl)c3)cc2C(=O)O)CC1` [compound 7], the “inhibition … (Luminex)” value in test [1] was “dose-dependent inhibitors”. Also, the “inhibition … (AlphaLISA)” value in test [2] was “inhibit the functional ubiquitinylation of CARD9 by TRIM62”. For the same compound, the “non-specific alphaLISA inhibition (Truhit)” value in test [3] is recorded as “Nonspecific inhibition was not observed”. Moreover, the “inhibition … (Western blot)” value in test [4] is on record as “inhibition of in vitro CARD9 ubiquitinylation reaction”.

Consider `Cc1ccc(C(=O)Nc2cnc(N3CCC(C(N)=O)(N4CCCCC4)CC3)c(C(=O)O)c2)cc1` [compound 9], for which the “inhibition … (Luminex)” value in test [1] is on record as “dose-dependent inhibitors”. In addition, the “inhibition … (AlphaLISA)” value in test [2] is given as “inhibit the functional ubiquitinylation of CARD9 by TRIM62”. Also, in test [3], the “non-specific alphaLISA inhibition (Truhit)” value was “Nonspecific inhibition was not observed”. Moreover, in test [4], the “inhibition … (Western blot)” value is reported as “inhibition of in vitro CARD9 ubiquitinylation reaction”. In addition, the “phosphorylation of IKK (CARD9 signaling)” value in test [6] was “attenuates CARD9 signaling in stimulus-dependent manner”. Also, the “WGP Dectin-1-mediated signaling to NF-κB, luciferase activity” value in test [5] is listed as “inhibited”. The “NF-κB activation, luciferase reporter” value in test [5] (scleroglucan or LPS stimuli, 2 hr and 4 hr) was “attenuates CARD9 signaling in stimulus-dependent manner”.

As to `NC(=O)C1(N2CCCCC2)CCN(c2ccc(NC(=O)c3ccccc3F)cc2C(=O)O)CC1` [compound 11], the “inhibition … (Luminex)” value in test [1] is on record as “potent inhibitor”. Also, the “inhibition … (AlphaLISA)” value in test [2] is listed as “potent inhibitor”.

Take `NC(=O)C1(N2CCCCC2)CCN(c2ncc(NC(=O)c3ccc(Cl)cc3)cc2C(=O)O)CC1` [compound 27]: the “inhibition … (Luminex)” value in test [1] is “dose-dependent inhibitors”. The “inhibition … (AlphaLISA)” value in test [2] is reported as “inhibit the functional ubiquitinylation of CARD9 by TRIM62”. The “non-specific alphaLISA inhibition (Truhit)” value in test [3] was “Nonspecific inhibition was not observed”. The “inhibition … (Western blot)” value in test [4] is reported as “inhibition of in vitro CARD9 ubiquitinylation reaction”.

For the compound scleroglucan [reference compound], the “activation of Dectin-1-mediated signaling, NF-κB-driven luciferase reporter” value in test [5] (50 μg/mL WGP or scleroglucan) is recorded as “more potent ligand than WGP”.
